Results on eight compounds are retold here after US20230190717A1, “P38 GAMMA INHIBITORS AND METHOD OF USE THEREOF” (City of Hope, priority 2017, published 2023).

Experiment [1] relates to Hut78 cells. The experiment in a line: CellTiterGlo cell viability, Hut78. The class given is cell-based, human. The note with it: for effect on viability of Hut78 cells: varying concentrations, 72 hr; for IC50: Homo sapiens, HuT78, 72 h.
Protocol: (§2) Viability assays using trypan blue exclusion and CellTiterGlo Cell Viability Assay: Cell viability was calculated by diluting cell suspensions 1:1 in 0.4% TRYPAN BLUE solution (Sigma, St. Louis, Mo.) and counting the number of viable cells using a TC20™ automated cell counter (Bio-Rad, Irvine, Calif.) that automatically excludes the number of non-viable cells stained with trypan blue per total cells. […] All data points are an average of triplicate experiments.
(§3) Absorbance was monitored at 490 nm using an automated BMG PHERAstar plate reader (BMG Labtech). […] All experiments are repeated in three independent experiments and data represented are the average of triplicate experiments.
Experiment [2] relates to phosphorylation of Akt at ser473. Put plainly: Western blot of Akt Ser473 phosphorylation in Hut78. Type of experiment: cell-based, human. The conditions noted are these: Hut78, 4 hr treatment.
Protocol: Western blot: Western blots were performed as described previously [5]. Rabbit primary antibodies (Cell Signaling Technology (CST), Danvers, Mass.) were used at the following dilutions: anti-p38α, -p38β, -p38γ, and -p38δ (1:1000), anti-B-tubulin (1:2000), anti-p38 GAPDH 1:1000. […] For detection of p38γ protein level in SS patient samples we used a monoclonal antibody that close to N-terminus of human p38γ MAPK (SAPK3) from Abcam ((ab205926).
For another experiment, the target named is T1, p38 γ (Homo sapiens, UniProt P53778).
T1 sequence (P53778 1-367): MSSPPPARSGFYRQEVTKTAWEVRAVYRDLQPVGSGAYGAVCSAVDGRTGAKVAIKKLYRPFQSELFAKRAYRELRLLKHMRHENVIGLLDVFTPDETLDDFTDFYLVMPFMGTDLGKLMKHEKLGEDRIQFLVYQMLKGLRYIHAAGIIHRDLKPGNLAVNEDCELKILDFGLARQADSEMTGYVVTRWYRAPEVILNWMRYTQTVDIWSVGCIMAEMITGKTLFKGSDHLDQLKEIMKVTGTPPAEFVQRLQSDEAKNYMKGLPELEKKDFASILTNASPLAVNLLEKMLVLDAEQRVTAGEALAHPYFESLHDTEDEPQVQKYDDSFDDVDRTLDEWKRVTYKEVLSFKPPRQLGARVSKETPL
Put plainly: ADP-Glo in vitro kinase assay, p38γ. The class given is biochemical. The note with it: for inhibitory kinase activity against p38γ: PI3K inhibitors at 1 and 10 μM; for IC50: in vitro inhibition assay. The arrangement: human recombinant p38 α, β, γ or δ protein (active full-length); purchased SignalChem; host or cells: baculovirus in Sf9 insect cells.

Experiment [3] concerns p38γ. The experiment in a line: Time-resolved fluorescence energy transfer enzyme kinetic analysis. The class given is biochemical.
The next experiment has as its system Hut78 CTCL cell line. The experiment in a line: Annexin V/PI flow cytometry, Hut78. The class given is cell-based, human. The note with it: Hut78, 200 nM, 24 h. The text has this:
(§1) Data presented are one experiment in triplicate.
A general note: Flow cytometry measures light scatter and fluorescence of single cells or particles in a stream.

In experiment [4] the test system is CTCL cells. The experiment in a line: CTCL cell growth / killing. The class given is cell-based.
For another experiment, the target named is PI3Kγ (Homo sapiens, UniProt P48736). The conditions noted are these: PI3Kγ isoform; cited from earlier work.
The test system of a further experiment is healthy CD4+ T cells. Put plainly: Apoptosis and growth in healthy CD4+ T cells. The note with it: FIG. 19E. Type of experiment: cell-based, human.
In the next experiment the target is T2, p38δ (Homo sapiens, UniProt O15264).
T2 sequence (O15264 1-365): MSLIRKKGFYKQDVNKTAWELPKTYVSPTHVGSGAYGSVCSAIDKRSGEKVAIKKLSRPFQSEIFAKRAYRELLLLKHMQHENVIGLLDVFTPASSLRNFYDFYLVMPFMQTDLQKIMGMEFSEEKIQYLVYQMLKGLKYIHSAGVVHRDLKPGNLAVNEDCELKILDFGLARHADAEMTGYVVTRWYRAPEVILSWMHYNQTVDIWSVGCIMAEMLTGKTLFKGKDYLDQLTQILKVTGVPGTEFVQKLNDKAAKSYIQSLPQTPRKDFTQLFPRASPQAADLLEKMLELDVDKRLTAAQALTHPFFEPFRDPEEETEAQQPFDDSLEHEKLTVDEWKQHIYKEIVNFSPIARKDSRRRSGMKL
Put plainly: p38 isoform kinase activity (FIG. 20A). Type of experiment: biochemical. Further details: human recombinant p38 α, β, γ or δ protein (active full-length); purchased SignalChem; host or cells: baculovirus in Sf9 insect cells. The note with it: p38δ (printed "6").

For another experiment, the system named is Hut78 xenografts. Put plainly: Hut78 xenograft tumor growth in mice. The class given is in vivo.
For experiment [5], the system named is p38γ substrate DLGH1 at Ser158. The experiment in a line: Immunohistochemistry in F7-treated CTCL xenograft mouse tissue. The conditions noted are these: data not shown. The class given is in vivo.
The subject of experiment [6] is PBMCs isolated from an SS patient. Put plainly: Annexin V/PI flow cytometry, SS patient PBMCs. Type of experiment: cell-based, human. The conditions noted are these: SS PBMC, 200 nM, 24 h.
Excerpt: as §1

Experiment [7] concerns Hut78 cells. The experiment in a line: Hut78 cell proliferation / viability. The class given is cell-based, human.
Experiment [8] concerns p38γ. The experiment in a line: p38 isoform kinase activity (FIG. 20A). Type of experiment: biochemical.
Experiment [9] concerns p38γ substrate DLGH1 at Ser158. The experiment in a line: Western blot of Hut78 cells for phosphorylation of p38γ substrate. Type of experiment: cell-based, human. (In western blotting, separated proteins are transferred to a membrane and probed.)
Experiment [10] relates to p38γ. The experiment in a line: p38γ mRNA level and protein expression (Western blot). The class given is cell-based. The note with it: Western blot, 24 hr, 500 nM. The text has this: qRT-PCR (real-time quantitative reverse transcription PCR): Total RNA was generated using TRIZOL reagent (Life Technologies, Carlsbad, Calif.) followed by double DNase treatment and column purification using Qiagen RNeasy Clean-up (Qiagen, Germantown, Md.). The Invitrogen […] III First-Strand Synthesis System was used for cDNA synthesis and TaqMan 5700 Sequence Detection System (Applied Biosystems, Foster City, Calif.) were used for qRT-PCR. All PCR reactions were run in triplicate. The amplified transcripts were quantified using the comparative CT method as described. cDNA and primers for MAPK11, 12, 13, and 14 and GAPDH (Table 9) were added to SYBR GREEN PCR Master Mix (SYBR Green I Dye, […]® DNA polymerase, dNTPs with dUTP and optimal buffer components; Applied Biosystems) and subjected to PCR amplification (1 cycle at 95° C. for 3 min; 35 cycles at 95° C. for 15 s and 55° C. for 30 s; 1 cycle at 50° C. for 2 min).

Another experiment has as its system H9 cells. The experiment in a line: CellTiterGlo cell viability, H9. The note with it: Homo sapiens, H9, 72 h. (In general: ATP-based viability assays read luminescence as a measure of living cells.)
A further experiment concerns HH cells. The experiment in a line: CellTiterGlo cell viability, HH. The class given is cell-based. The conditions noted are these: Homo sapiens, 72 h.
Another experiment relates to SS patient cells. Put plainly: Apoptosis and growth in primary SS patient cells. Type of experiment: cell-based, human.
Experiment [11] has as its target T3, p38γ (Mus musculus, UniProt O08911).
T3 construct: host or cells: mice (in vivo)
The conditions noted are these: requires a high dose; cited from earlier work.

Experiment [12] concerns CTCL cells. The experiment in a line: Cell viability, CTCL cells (pirfenidone). Type of experiment: cell-based. The note with it: Homo sapiens, read-out: IC50 CTCL cell growth / cell killing.
Experiment [13] deals with p38γ. The experiment in a line: p38γ inhibition at the concentration used in the RNAi library screen. The note with it: 10 uM, data not shown. The text has this: Synthetic lethal RNAi screen. We will use a synthetic lethal RNAi screen in the presence of sub-lethal p38γ inhibition to identify critical downstream signaling components in CTCL (FIG. 31). We will transduce control and p38γ inhibitor-treated Hut78 CTCL cells with a pooled retroviral RNAi library that targets genes involved in human cancers. Because loss of p38γ alone causes CTCL cell death, we will titrate the dose and/or length of exposure to the p38γ inhibitor to ensure a sub-lethal effect. The target gene of an shRNA that causes death in cells treated with sub-lethal p38γ inhibitor but not control cells will be identified as synthetic lethal/synergistic. Based on our preliminary data showing synergy between F7 and HDACi, we are expecting to identify HDAC family members in the RNAi screen. We will further narrow down the corresponding HDACi for each HDAC member identified, and study potential synergistic effects to achieve of killing CTCL cells. For example, our preliminary data has shown using an RNAi library plus the p38 inhibitor Ly2228820, we have successfully selected loss of HDAC3 as a synergistically lethal element to p38 pathway inhibition, including α, β, and γ isoforms of p38 by LY2228820 (10 uM) […] We will further test the combination of p38γ inhibition with several HDAC3 inhibitors (e.g., RGFP966) for further mechanistic study in Hut78 cells.

“Also recorded” adds a separate entry of the source.

By Km is commonly meant the substrate concentration at which the rate is half of its maximum.

T3 sequence (O08911 whole entry): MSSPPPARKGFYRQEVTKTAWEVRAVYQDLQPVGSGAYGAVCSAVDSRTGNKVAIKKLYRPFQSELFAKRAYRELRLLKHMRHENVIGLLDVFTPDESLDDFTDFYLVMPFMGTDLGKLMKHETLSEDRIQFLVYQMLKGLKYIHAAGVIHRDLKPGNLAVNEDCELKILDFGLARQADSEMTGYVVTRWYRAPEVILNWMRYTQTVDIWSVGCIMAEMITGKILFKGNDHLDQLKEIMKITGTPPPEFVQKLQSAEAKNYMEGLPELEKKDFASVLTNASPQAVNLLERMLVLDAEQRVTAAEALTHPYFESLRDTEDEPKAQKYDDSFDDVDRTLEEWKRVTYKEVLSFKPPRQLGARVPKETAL
Chain of PI3Kγ (P48736 whole entry, canonical isoform): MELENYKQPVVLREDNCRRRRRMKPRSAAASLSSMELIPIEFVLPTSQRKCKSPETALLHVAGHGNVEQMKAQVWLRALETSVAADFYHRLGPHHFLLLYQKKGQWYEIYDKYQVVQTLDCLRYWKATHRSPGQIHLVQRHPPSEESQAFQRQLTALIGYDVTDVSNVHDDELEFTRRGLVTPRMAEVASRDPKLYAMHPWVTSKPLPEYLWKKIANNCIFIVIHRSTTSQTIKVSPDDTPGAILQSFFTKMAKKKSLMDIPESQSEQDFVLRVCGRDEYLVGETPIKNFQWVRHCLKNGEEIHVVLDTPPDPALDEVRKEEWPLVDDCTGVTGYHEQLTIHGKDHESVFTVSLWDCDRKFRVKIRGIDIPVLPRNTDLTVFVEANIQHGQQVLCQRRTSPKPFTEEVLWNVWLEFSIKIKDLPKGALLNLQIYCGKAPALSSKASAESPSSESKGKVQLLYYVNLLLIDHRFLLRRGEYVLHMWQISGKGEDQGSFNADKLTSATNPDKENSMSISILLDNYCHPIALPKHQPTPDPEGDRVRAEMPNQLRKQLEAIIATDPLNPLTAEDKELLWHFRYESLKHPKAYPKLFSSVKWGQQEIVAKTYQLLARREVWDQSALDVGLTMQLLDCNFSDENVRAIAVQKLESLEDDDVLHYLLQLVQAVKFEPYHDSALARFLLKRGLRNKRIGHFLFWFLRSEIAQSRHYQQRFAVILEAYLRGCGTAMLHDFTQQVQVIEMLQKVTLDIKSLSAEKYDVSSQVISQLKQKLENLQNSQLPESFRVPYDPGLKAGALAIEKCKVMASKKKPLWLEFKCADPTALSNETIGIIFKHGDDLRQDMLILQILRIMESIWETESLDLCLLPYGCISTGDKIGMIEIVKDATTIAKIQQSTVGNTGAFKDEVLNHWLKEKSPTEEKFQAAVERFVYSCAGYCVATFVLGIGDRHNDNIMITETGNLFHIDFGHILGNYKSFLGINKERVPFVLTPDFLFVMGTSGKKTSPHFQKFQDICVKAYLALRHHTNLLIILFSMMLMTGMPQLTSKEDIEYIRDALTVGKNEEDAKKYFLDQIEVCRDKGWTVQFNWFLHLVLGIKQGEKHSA
Protocol for H9 cells: as §2, §3
Protocol for HH cells: as §2, §3
Protocol for p38 γ: All compounds are cell-permeable, reversible and well-characterized. For the biochemical screening, kinase assays in vitro were performed using ADP-Glo kit (Promega). The luminescent ADP-Glo kinase assay measures ADP produced from ATP consumption in the reaction.
Kinase assay in vitro: Kinase enzyme assays in vitro were performed using ADP-Glo kit (Promega, Wis.). The luminescent ADP-Glo kinase assay measures ADP produced from ATP consumption in a kinase enzyme reaction. […] Briefly, in this experiment, human recombinant p38 α, β, γ or δ protein (active full-length) expressed by baculovirus in sf9 insect cells (SignalChem, Vancouver, Canada) was homogenized in wells of white opaque 96-well microplates with the kinase buffer that consisted of 40 mM Tris-HCl (pH 7.5), 20 mM MgCl2, 0.1 mg/mL BSA and 50 μM DTT. […] Next, synthetic peptide substrates ([sequence]) were added to the mixture at final concentration of 0.2 μg/μL, followed by adding ATP at various concentrations. The 50 μL mixture was reacted at room temperature for 60 min. Then, ADP-Glo Reagent was incubated in the mixture at room temperature for 40 min, followed by incubation of Kinase Detection Reagent for another 30 min with minor modification as described in the supplier's instruction. Luminescence was measured at an integration time of 0.5 second using an automated BMG PHERAstar plate reader (BMG Labtech). Each experiment was conducted in duplicate or triplicate. […] IC50 values were determined using CalcuSyn software (Biosoft).
IC50 values were determined using CalcuSyn software (Biosoft) based on the data of Figure a.
IC50 values were determined using CalcuSyn software (Biosoft).
All compounds are cell-permeable, reversible, and well-characterized. For the biochemical screening, kinase assays in vitro were performed using ADP-GLO kit (Promega) following manufactures instructions. […] Briefly, for in vitro assay experiments, human recombinant p38 α, β, γ or δ proteins (active full-length) were from [sequence], and followed the protocol of the company. […] Then, ADP-GLO REAGENT was incubated in the mixture at room temperature for 40 min, followed by incubation of Kinase Detection Reagent for another 30 min. IC50 values were determined using [sequence] software (Biosoft, Cambridge, United Kingdom).

As for `Cc1nc(NC(=O)N2CCC[C@H]2C(N)=O)sc1-c1csc(C(C)(C)C)n1` [Compound A66], in the experiment on Hut78 cells [1], the “effect on viability of Hut78 cells” value was “no influence”. In addition, the “phosphorylation of Akt at ser473” value in [2] was “dose-dependent inhibition”. Besides, the “inhibitory kinase activity against p38γ” value on p38 γ was “no inhibitory kinase activities; also recorded: doesn't inhibit”.
Regarding `Nc1ncnc2c1ncn2[C@@H]1O[C@H](COP(=O)(O)OP(=O)(O)OP(=O)(O)O)[C@@H](O)[C@H]1O` [ATP], the Km with p38γ [3] (p38γ, read-out: ATP Km) is 3.2 ± 0.4 µM.
Regarding `Cn1c(=O)n(-c2ccc(C(C)(C)C#N)cc2)c2c3cc(-c4cnc5ccccc5c4)ccc3ncc21` [BEZ235, Dactolisib], the “effect on viability of Hut78 cells” value in the experiment with Hut78 cells [1] is “only modest reduction of cell viability”. Further, at p38 γ, the “inhibitory kinase activity against p38γ” value is given as “no inhibitory kinase activities”.
Regarding `Cc1ccc([N+](=O)[O-])cc1S(=O)(=O)N(C)/N=C/c1cnc2ccc(-c3ccc(F)nc3)cn12` [Compound F7D10], the IC50 with Hut78 cells [1] was around 2500 nM; on p38 γ, around 3400 nM.
Consider `Cc1ccc([N+](=O)[O-])cc1S(=O)(=O)N(C)/N=C/c1cnc2ccc(Br)cn12` [Compound F7], for which the values for the AnnexV_PI (in the experiment on Hut78 CTCL cell line; in [6]) were 25.5 Percentage and 17.8 Percentage, respectively. Besides, the results for the Live cells (with Hut78 CTCL cell line; in experiment [6]) were 44.48 Percentage and 42.797 Percentage, respectively. In addition, the entries for the “PI Stained” value (in the experiment on Hut78 CTCL cell line; in [6]) were 29.53 Percentage and 35.2 Percentage, respectively. Moreover, in the experiment on CTCL cells [4], the “killing of CTCL cells” value was “selectively kills CTCL cells at nanomolar concentrations”. Further, in the experiment on CTCL cells [4] (compared with PI3K-specific inhibitor A66, FIG. 28), the “effectiveness against CTCL cells” value is “more effective against CTCL cells than a PI3K-specific inhibitor”. Also, the “inhibition of CTCL cell growth” value in the experiment with CTCL cells [4] (compared with Vorinostat (SAHA)) was “more potent inhibitor of CTCL cell growth than the FDA-approved HDACi Vorinostat”. Moreover, the IC50 at PI3Kγ is 76 nM; in the experiment with Hut78 cells [1], 42 nM; with H9 cells, 46 nM; in the experiment with HH cells it was 34 nM. Further, the mechanism of inhibition result in the experiment with p38γ [3] (versus ATP) is given as “competitive mechanism”. Moreover, the inhibition of growth result in the experiment with healthy CD4+ T cells is “but not healthy CD4+ T cells”; in the experiment on Hut78 cells [7] (Hut78 CTCL cells, FIG. 19E) it was “inhibition of growth”; with SS patient cells (FIG. 19E) it was “inhibition of growth”. Further, the “inhibition of kinase activity” value at p38δ is reported as “selective, dose-dependent inhibition”; with p38γ [8], “selective, dose-dependent inhibition”. For the same compound, the “inhibition of tumor growth” value is “statistically significant dose-dependent inhibition of tumor growth” with Hut78 xenografts (2 mg/kg, p=0.015, versus vehicle control) and “statistically significant dose-dependent inhibition of tumor growth” in the experiment on Hut78 xenografts (10 mg/kg, p=0.025, versus vehicle control). The “phosphorylation of p38γ substrate DLGH1 at Ser158” value in experiment [5] and in [9] was “reduced phosphorylation” in each case. For the same compound, the “cell viability in Hut78 cells” value in the experiment on Hut78 cells [7] (FIG. 19B / FIG. 29A) is listed as “reduced cell viability”. Besides, the induction of apoptosis entry in the experiment with Hut78 cells [7] (Hut78 CTCL cells, data not shown) is “selective induction of apoptosis”; in the experiment on SS patient cells (data not shown) it was “selective induction of apoptosis”. Moreover, the “proliferation of Hut78 cells” value with Hut78 cells [7] (compared with Pirfenidone, FIG. 7) is “reduced proliferation of Hut78 cells more effectively than Pirfenidone”. The “protein expression of p38 gamma” value in the experiment on p38γ [10] is “reduces and eliminates the protein expression”.
In the case of `CS(=O)(=O)N1CCN(Cc2cc3nc(-c4cccc5[nH]ncc45)nc(N4CCOCC4)c3s2)CC1` [GDC-0941, Pictilisib], in the experiment with Hut78 cells [1], the “effect on viability of Hut78 cells” value is “only modest reduction of cell viability”. Also, the “inhibitory kinase activity against p38γ” value at p38 γ was “no inhibitory kinase activities”.
Consider `Cc1ccc(=O)n(-c2ccccc2)c1` [Pirfenidone], for which the IC50 in the experiment with Hut78 cells [1], at p38 γ, in the experiment with CTCL cells [12], in the experiment on H9 cells and in the experiment on HH cells was above 125000 nM throughout. Also, the “p38γ inhibition in mice” value at p38γ [11] is “inhibits p38γ in mice”.
Take `CC(C)(C)Cn1c(N)nc2ccc(-c3[nH]c(C(C)(C)C)nc3-c3ccc(F)cc3)nc21` [LY2228820]: the p38γ inhibition result with p38γ [13] is on record as “caused p38γ inhibition”.
